The record followed here is patent US20210308196A1, “COMPOSITIONS AND METHODS TO PROMOTE HOST DEFENSE AND STIMULATE, EXPAND, AND/OR RESET T CELL REPERTOIRES” (EVOLVE BIOSYSTEMS, INC., priority 2018, published 2021).

For one assay, the system named is diabetes mellitus. Kind of assay: Prevention of type 1 diabetes in NOD mice. The settings on record: compared to control mice. It counts as in vivo, mouse. From the text: Germ-free non-obese diabetic (NOD) mouse pups are weaned 3 weeks after birth and put on a polysaccharide-free diet that contains Vitamin A. As soon as the mouse pups are weaned, they are gavaged with a dysbiotic (no Bifidobacterium sp. and high proteobacteria) human infant microbiome at Day 1 of the experiment. The mice are divided into 4 groups: control, control plus LNnT, B. infantis, and B. infantis plus LNnT. Mice are given the composition for 21 days. All Groups receive B. infantis or a placebo every 3 days by gavage; the LNnT or placebo is added to the drinking water. Additional mice are divided into 2 groups These groups are gavaged with a healthy human infant microbiome (Bifidobacterium species) at day 21 of the experiment. The mice are then either fed placebo or LNnT in their drinking and receive vitamin A in their chow. Mice are monitored for diabetes with weekly tail vein blood glucose measurements and euthanized following two consecutive daily readings of >[…]. […] Plasma is evaluated for cytokines and innate immune factors. Fecal samples are taken every day and evaluated using qPCR and/or 16s and/or shotgun sequencing for microbial colonization. […]

The next assay has as its system peanut extract allergy. Kind of assay: Reversal of murine peanut allergy. The class given is in vivo, mouse. The settings on record: previously sensitized animals, compared to control mice. The protocol: Germ-free pups are weaned 3 weeks after birth and put on a polysaccharide-free diet. Mice are gavaged with a dysbiotic microbiome of Example 3 at Day 1. Mice receive intragastric gavage of peanut extract on day 1 and day 7 at 5 mg/mouse and then 25 mg/mouse at week 5 with 10 μg of Cholera toxin. Elicitation of reaction is performed at eight to ten weeks using intragastric gavage of 10 mg/mouse food antigen (e.g., peanut extract) with vehicle (PBS). At 10 weeks, mice of the test group are fed B. infantis, while control mice receive vehicle gavage only. All mice have access ad labium to LNnT-infused drinking water for a period of 21 days. The mice are re-challenged with the food antigen via intragastric gavage of 10 mg/mouse peanut extract with vehicle (PBS). Anaphylaxis symptoms are evaluated, and then mice are necropsied. Plasma samples are collected for evaluation of histamine and IgE concentrations. White blood cells are isolated for PBMC characterization and evaluation of regulatory T cell population expansion using flow cytometry specific for CD4, CD25, Foxp3, Helios, Neuropilin, CD8, CD44, CD62L, IFNgamma, IL-17.

Assay [1] can be described thus: Bacterial growth and oligosaccharide use in HMO, LNnT or FOS media (growth curves, HPLC). The settings on record: compared to other Bifidobacterium and Lactobacillus strains. The protocol: Little is known about the anti-inflammatory effects B. infantis-derived metabolites have on intestinal epithelial cells and how they might protect and maintain mucosal integrity in the infant gut. To investigate whether metabolites from B. infantis grown on HMO and synthetic HMOs can provide protective effects against pathogen-induced inflammation and maintain mucosal integrity compared to other commensal strains that have been previously characterized. B. infantis, B. breve, B. bifidum, and B. longum were grown in media containing pooled HMOs, synthetic Lacto-N-neotetraose (LNnT), or fructo-oligosaccharide (FOS, a readily available oligosaccharide commonly used in baby formulas). Four Lactobacillus plantarum strains were also grown in HMO, LNnT, and FOS media. Spent supernatant was collected and filtered after 48 hours of growth (when the bacteria reached the stationary phase) and evaluated for the remaining oligosaccharide concentration. […] After overnight incubation, cell supernatant was analyzed by ELISA for reductions in pro-inflammatory cytokines, including IL-8 and TNF-alpha. […]

Assay [2] can be described thus: Nutritional intervention study on autoimmune/allergic disease (T1D) in breastfed infants. It counts as in vivo, human. Particulars: colonized infants. An excerpt: Administration of activated B. infantis to breastfed neonates and infants leads consistently to high levels of B. infantis in the stool.
This is a randomized, double-blinded, placebo-controlled, parallel group study design (See FIG. 15). After the parent/guardian(s) sign the informed consent, infants will be screened for all the eligibility criteria, and if found eligible will be enrolled in the study. Eligible infants must first undergo an HLA genotyping from a cord blood sample collected at birth. Based on their HLA genotype they will be either placed in group 1 (low risk by HLA genotyping) and group 2 (high risk by HLA genotype). Each group will be randomly assigned to the placebo or treatment groups. […] Parent/guardian(s) of the infants will be instructed to maintain breastfeeding (at least 1 feed/day) for at least 6 months, and up to 12 months if possible during the treatment period. Following the 12-month treatment period, individuals will be followed at regular intervals with study visits and assessments. Individuals will be followed until a sufficient number of events (seroconversion to multiple (2) islet autoantibodies) are accumulated to achieve the planned power for the final analysis. […]

The subject of assay [3] is TLR2, TLR4, TNF and COX-2. Kind of assay: qPCR of inflammatory markers in sloughed off intestinal epithelial cells. It counts as in vivo, human. Particulars: treatment group. From the text:
Expression of inflammatory markers including Toll like receptor (TLR) 2 and TLR4, COX-2 and TNF in intestinal epithelial cells: Previous data has implemented TLR2 in controlling mucosal inflammation by regulating intestinal epithelial barrier function. Further, a significant TLR4-dependent increase in Cox-2 expression has been shown in intestinal epithelial cells post exposure to lipopolysaccharide. TNF-α, a cytokine that plays a key role in mucosal inflammation, is readily detectable at the expression and protein levels in children who have various intestinal pathologies.
Background: In qPCR the cycle at which signal appears reflects the starting amount.

Regarding “Bifidobacterium longum subsp. infantis EVC001 [B. infantis EVC001]”, in the assay with diabetes mellitus, the “Incidence of the development of diabetes mellitus” value was “reduces”. Also, the “Inflammatory responses to the food antigen” value with peanut extract allergy was “reduces”. In addition, the “Growth in HMOs (growth curves)” value in assay [1] was “selective growth advantage”. Also, in assay [2], the “Rates of childhood-onset autoimmune and allergic disease” value is on record as “decreases”; the TReg cell numbers result is “increases”. For the same substance, the “Expression of TLR2, TLR4, TNF and COX-2” value in assay [3] is “significantly reduced”.
